Measurements from patent US9758485B2, “Compounds for controlling arthropods” (priority 2013, dated 2017).

assay: logP determination by HPLC on a reversed-phase column (C18), EEC Directive 79/831 Annex V.A8; format: physicochemical; details: HPLC on reversed-phase column (C18)

Row | SMILES | log P
1 | CCS(=O)(=O)c1cc(C(F)(F)F)cc(Cl)c1-n1cc(-c2ccc(Cl)c(C(=O)NC3(C#N)CC3)c2)cn1 [I-T3-183] | 3.1
2 | O=C(NC1CC1)c1cc(-c2cnn(-c3c(F)cc(C(F)(F)F)cc3Cl)c2)ccc1Cl [I-T3-186] | 3.6
3 | N#CC1(NC(=O)c2cc(-c3cnn(-c4c(F)cc(C(F)(F)F)cc4Cl)c3)ccc2Cl)CC1 [I-T3-187] | 3.3
4 | N#CC1(NC(=O)c2cc(-c3cnn(-c4c(F)c(F)c(C(F)(F)F)c(F)c4F)c3)ccc2Cl)CC1 [I-T3-188] | 3.4
5 | CCS(=O)(=O)c1cc(C(F)(F)F)cc(C#N)c1-n1cc(-c2ccc(Cl)c(C(=O)NC3(C#N)CC3)c2)cn1 [I-T3-190] | 2.9
6 | CCSc1cc(C(F)(C(F)(F)F)C(F)(F)F)cc(SCC)c1-n1cc(-c2ccc(Cl)c(C(=O)NC3(C#N)CC3)c2)cn1 [I-T3-191] | 4.7
7 | CCSc1cc(C(F)(C(F)(F)F)C(F)(F)F)cc(Cl)c1-n1cc(-c2ccc(Cl)c(C(=O)NC3(C#N)CC3)c2)cn1 [I-T3-192] | 4.5
8 | O=C(NC1CC1)c1cc(-c2cnn(-c3c(Cl)cc(C(F)(C(F)(F)F)C(F)(F)F)cc3C(F)F)c2)ccc1Cl [I-T3-193] | 4.4
9 | NC(=O)C1(NC(=O)c2cc(-c3cnn(-c4c(F)c(F)c(C(F)(F)F)c(F)c4F)c3)ccc2Cl)CC1 [I-T3-194] | 2.8
10 | CC[S+]([O-])c1cc(C(F)(C(F)(F)F)C(F)(F)F)cc(Cl)c1-n1cc(-c2ccc(Cl)c(C(=O)NC3(C#N)CC3)c2)cn1 (centres unmarked) [I-T3-195] | 3.8
11 | Cc1cc(C(F)(C(F)(F)F)C(F)(F)F)cc(C(F)(F)F)c1-n1cc(-c2cnc(Cl)c(C(=O)NCC3(C#N)CC3)c2)cn1 [I-T3-197] | 4.0
12 | CCS(=O)(=O)c1cc(C(F)(C(F)(F)F)C(F)(F)F)cc(S(=O)(=O)CC)c1-n1cc(-c2ccc(Cl)c(C(=O)NC3(C#N)CC3)c2)cn1 [I-T3-198] | 3.7
13 | CCS(=O)(=O)c1cc(C(F)(C(F)(F)F)C(F)(F)F)cc(Cl)c1-n1cc(-c2ccc(Cl)c(C(=O)NC3(C#N)CC3)c2)cn1 [I-T3-201] | 4.0
14 | CCSc1cc(C(F)(C(F)(F)F)C(F)(F)F)cc(C)c1-n1cc(-c2ccc(Cl)c(C(=O)NC3(C#N)CC3)c2)cn1 [I-T3-202] | 4.5
15 | CCSc1cc(C(F)(C(F)(F)F)C(F)(F)F)cc(C)c1-n1cc(-c2ccc(Cl)c(C(=O)NC3CC3)c2)cn1 [I-T3-203] | 4.6
16 | CN(C(=O)c1cc(-c2cnn(-c3c(Cl)cc(C(F)(C(F)(F)F)C(F)(F)F)cc3C#N)c2)cnc1Cl)C1CC1 [I-T3-204] | 3.9

Row | SMILES | log P
17 | N#Cc1cc(C(F)(C(F)(F)F)C(F)(F)F)cc(Cl)c1-n1cc(-c2cnc(Cl)c(C(=O)NC3CC3)c2)cn1 [I-T3-205] | 3.5
18 | CC[S+]([O-])c1cc(C(F)(C(F)(F)F)C(F)(F)F)cc(C)c1-n1cc(-c2ccc(Cl)c(C(=O)NC3(C#N)CC3)c2)cn1 (centres unmarked) [I-T3-206] | 3.6
19 | N#Cc1cc(C(F)(C(F)(F)F)C(F)(F)F)cc(Cl)c1-n1cc(-c2cnc(Cl)c(C(=O)NC3(C#N)CC3)c2)cn1 [I-T3-207] | 3.5
20 | CN(C(=O)c1cc(-c2cnn(-c3c(Cl)cc(C(F)(C(F)(F)F)C(F)(F)F)cc3OC(F)(F)F)c2)cnc1Cl)C1CC1 [I-T3-208] | 4.6
21 | CCS(=O)(=O)c1cc(C(F)(C(F)(F)F)C(F)(F)F)cc(C)c1-n1cc(-c2ccc(Cl)c(C(=O)NC3(C#N)CC3)c2)cn1 [I-T3-209] | 3.8
22 | CCS(=O)(=O)c1cc(C(F)(C(F)(F)F)C(F)(F)F)cc(C)c1-n1cc(-c2ccc(Cl)c(C(=O)NC3CC3)c2)cn1 [I-T3-210] | 3.9
23 | CCOc1cc(C(F)(C(F)(F)F)C(F)(F)F)cc(OCC)c1-n1cc(-c2cnc(Cl)c(C(=O)N(C)C3CC3)c2)cn1 [I-T3-211] | 4.7
24 | N#CC1(NC(=O)c2cc(-c3cnn(-c4c(Cl)cc(C(F)(C(F)(F)F)C(F)(F)F)cc4I)c3)ccc2Cl)CC1 [I-T3-212] | 4.3
25 | O=C(NC1CC1)c1cc(-c2cnn(-c3c(Cl)cc(C(F)(C(F)(F)F)C(F)(F)F)cc3I)c2)ccc1Cl [I-T3-213] | 4.4
26 | O=C(NC1CC1)c1cc(-c2cnn(-c3c(Cl)cc(C(F)(C(F)(F)F)C(F)(F)F)cc3OC(F)F)c2)ccc1Cl [I-T3-214] | 4.3
27 | N#CC1(NC(=O)c2cc(-c3cnn(-c4c(Cl)cc(C(F)(C(F)(F)F)C(F)(F)F)cc4OC(F)F)c3)ccc2Cl)CC1 [I-T3-215] | 4.1
28 | CN(C(=O)c1cc(-c2cnn(-c3c(Cl)cc(C(F)(C(F)(F)F)C(F)(F)F)cc3OC(F)F)c2)ccc1Cl)C1CC1 [I-T3-216] | 4.7
29 | CN(C(=O)c1cc(-c2cnn(-c3c(Cl)cc(C(F)(C(F)(F)F)C(F)(F)F)cc3OC(F)F)c2)cnc1Cl)C1CC1 [I-T3-217] | 4.2
30 | N#CC1(NC(=O)c2cc(-c3cnn(-c4c(Cl)cc(C(F)(C(F)(F)F)C(F)(F)F)cc4OC(F)F)c3)cnc2Cl)CC1 [I-T3-218] | 3.7
31 | CN(C(=O)c1cc(-c2cnn(-c3c(Cl)cc(C(F)(C(F)(F)F)C(F)(F)F)cc3OC(F)(F)F)c2)ccc1Cl)C1CC1 [I-T3-219] | 5.1
32 | CN(C(=O)c1cc(-c2cnn(-c3c(Cl)cc(C(O)(C(F)(F)F)C(F)(F)F)cc3Cl)c2)cnc1Cl)C1CC1 [I-T3-220] | 3.4

same assay, conditions: HPLC-MS method a), Table I-T3

Row | SMILES | logP^a)
33 | Cc1cc(C(F)(C(F)(F)F)C(F)(F)F)cc(C)c1-n1cc(-c2cc(C(=O)NC3CC3)c(Cl)cc2F)cn1 [I-T3-14] | 4.5
34 | N#CC1(NC(=O)c2cccc(-c3cnn(-c4c(Cl)cc(C(F)(C(F)(F)F)C(F)(F)F)cc4Cl)c3)c2F)CC1 [I-T3-22] | 4.1

same assay, conditions: HPLC-MS, reversed-phase column (C18)

Row | SMILES | log P
35 | O=C(NC1CC1)c1cccc(-c2cnn(-c3ncc(C(F)(F)F)cc3Cl)c2)c1 [I-T3-122] | 3.0
36 | CN(C(=O)c1cc(-c2cnn(-c3ccc(C(F)(C(F)(F)F)C(F)(F)F)cc3C(F)(F)F)c2)ccc1Cl)C1CC1 [I-T3-134] | 4.9
37 | O=C(NC1CC1)c1cc(-c2cnn(-c3ncc(C(F)(C(F)(F)F)C(F)(F)F)cc3Cl)c2)ccc1Cl [I-T3-152] | 4.1
38 | CC[S+]([O-])c1cc(C(F)(C(F)(F)F)C(F)(F)F)cnc1-n1cc(-c2ccc(Cl)c(C(=O)NC3(C#N)CC3)c2)cn1 (centres unmarked) [I-T3-153] | 3.7
39 | NC(=S)C1(NC(=O)c2cc(-c3cnn(-c4c(Cl)cc(C(F)(C(F)(F)F)C(F)(F)F)cc4C(F)(F)F)c3)cnc2Cl)CC1 [I-T3-159] | 3.8
40 | CSc1cc(C(F)(C(F)(F)F)C(F)(F)F)cnc1-n1cc(-c2ccc(Cl)c(C(=O)NC3(C#N)CC3)c2)cn1 [I-T3-166] | 4.3
41 | N#CC1(NC(=O)c2cc(-c3cnn(-c4c(Cl)cc(C(F)(F)F)cc4[N+](=O)[O-])c3)ccc2Cl)CC1 [I-T3-169] | 3.2
42 | CCSc1cc(C(F)(F)F)cc(Cl)c1-n1cc(-c2ccc(Cl)c(C(=O)NC3(C#N)CC3)c2)cn1 [I-T3-170] | 3.7
43 | N#CC1(NC(=O)c2cc(-c3cnn(-c4ncc(C(F)(C(F)(F)F)C(F)(F)F)cc4SCC(F)(F)F)c3)ccc2Cl)CC1 [I-T3-171] | 4.5
44 | CCSc1cc(C(F)(F)F)cc(Cl)c1-n1cc(-c2ccc(Cl)c(C(=O)NC3CC3)c2)cn1 [I-T3-172] | 3.9
45 | N#Cc1cc(C(F)(F)F)cc(Cl)c1-n1cc(-c2ccc(Cl)c(C(=O)NC3CC3)c2)cn1 [I-T3-174] | 3.1
46 | CCSc1cc(C(F)(F)F)cc(C#N)c1-n1cc(-c2ccc(Cl)c(C(=O)NC3(C#N)CC3)c2)cn1 [I-T3-177] | 3.4
47 | CCS(=O)(=O)c1cc(C(F)(F)F)cc(Cl)c1-n1cc(-c2ccc(Cl)c(C(=O)NC3CC3)c2)cn1 [I-T3-178] | 3.2
48 | CC[S+]([O-])c1cc(C(F)(F)F)cc(Cl)c1-n1cc(-c2ccc(Cl)c(C(=O)NC3CC3)c2)cn1 (centres unmarked) [I-T3-179] | 3.0
49 | CCS(=O)(=O)c1cc(C(F)(F)F)cc(C#N)c1-n1cc(-c2ccc(Cl)c(C(=O)NC3CC3)c2)cn1 [I-T3-180] | 2.8
50 | CC[S+]([O-])c1cc(C(F)(F)F)cc(C#N)c1-n1cc(-c2ccc(Cl)c(C(=O)NC3CC3)c2)cn1 (centres unmarked) [I-T3-181] | 2.7

same assay, conditions: reversed-phase HPLC column (C18), HPLC, reversed-phase C18, acetonitrile/water with formic acid, 55° C.; read-out: logP

Row | SMILES | chromatographic logP
51 | NNc1c(Cl)cc(C(O)(C(F)(F)F)C(F)(F)F)cc1Cl [2-(3,5-dichloro-4-hydrazinophenyl)-1,1,1,3,3,3-hexafluoropropan-2-ol] | 1.92
52 | FC(F)(F)C(F)(c1cnc(-n2cc(Br)cn2)c(Cl)c1)C(F)(F)F [2-(4-bromo-1H-pyrazol-1-yl)-3-chloro-5-(1,1,1,2,3,3,3-heptafluoropropan-2-yl)pyridine] | 4.74
53 | Cc1cc(C(F)(C(F)(F)F)C(F)(F)F)cc(Br)c1N [2-bromo-6-methyl-4-heptafluoroisopropylaniline] | 4.38
54 | O=C(NC1CC1)c1cc(-c2cnn(-c3ncc(C(F)(C(F)(F)F)C(F)(F)F)cc3Cl)c2)ccc1Cl [2-chloro-5-{1-[3-chloro-5-(1,1,1,2,3,3,3-heptafluoropropan-2-yl)pyridin-2-yl]-1H-pyrazol-4-yl}-N-cyclopropylbenzamide] | 4.08
55 | CCc1cc(C(F)(C(F)(F)F)C(F)(F)F)cc(Cl)c1N [2-chloro-6-ethyl-4-heptafluoroisopropylaniline] | 4.67
56 | Cc1cc(C(F)(C(F)(F)F)C(F)(F)F)cc(C(F)(F)F)c1N [4-heptafluoroisopropyl-2-methyl-6-trifluoromethylaniline] | 4.67
57 | CCSc1cc(C(F)(C(F)(F)F)C(F)(F)F)cnc1-n1cc(-c2ccc(Cl)c(C(=O)NC3CC3)c2)cn1 [I-T3-156, 2-Chloro-N-cyclopropyl-5-{1-[3-(ethylsulphanyl)-5-(1,1,1,2,3,3,3-heptafluoropropan-2-yl)pyridin-2-yl]-1H-pyrazol-4-yl}benzamide] | 4.69
58 | CC[S+]([O-])c1cc(C(F)(C(F)(F)F)C(F)(F)F)cnc1-n1cc(-c2ccc(Cl)c(C(=O)NC3CC3)c2)cn1 (centres unmarked) [I-T3-157, 2-Chloro-N-cyclopropyl-5-{1-[3-(ethylsulphinyl)-5-(1,1,1,2,3,3,3-heptafluoropropan-2-yl)pyridin-2-yl]-1H-pyrazol-4-yl}benzamide] | 3.79

same assay, conditions: reversed-phase HPLC column (C18), HPLC-MS method a), reversed-phase column (C18); read-out: logP^a)

Row | SMILES | chromatographic logP
59 | CCSc1cc(C(F)(C(F)(F)F)C(F)(F)F)cnc1-n1cc(-c2ccc(Cl)c(C(=O)NC3CC3)c2)cn1 [I-T3-156, 2-Chloro-N-cyclopropyl-5-{1-[3-(ethylsulphanyl)-5-(1,1,1,2,3,3,3-heptafluoropropan-2-yl)pyridin-2-yl]-1H-pyrazol-4-yl}benzamide] | 4.7
60 | CC[S+]([O-])c1cc(C(F)(C(F)(F)F)C(F)(F)F)cnc1-n1cc(-c2ccc(Cl)c(C(=O)NC3CC3)c2)cn1 (centres unmarked) [I-T3-157, 2-Chloro-N-cyclopropyl-5-{1-[3-(ethylsulphinyl)-5-(1,1,1,2,3,3,3-heptafluoropropan-2-yl)pyridin-2-yl]-1H-pyrazol-4-yl}benzamide] | 3.8

same assay, conditions: reversed-phase HPLC column (C18), HPLC-MS, reversed-phase column (C18); read-out: log P

Row | SMILES | chromatographic logP
61 | CCSc1cc(C(F)(C(F)(F)F)C(F)(F)F)cnc1-n1cc(-c2ccc(Cl)c(C(=O)NC3CC3)c2)cn1 [I-T3-156, 2-Chloro-N-cyclopropyl-5-{1-[3-(ethylsulphanyl)-5-(1,1,1,2,3,3,3-heptafluoropropan-2-yl)pyridin-2-yl]-1H-pyrazol-4-yl}benzamide] | 4.7
62 | CC[S+]([O-])c1cc(C(F)(C(F)(F)F)C(F)(F)F)cnc1-n1cc(-c2ccc(Cl)c(C(=O)NC3CC3)c2)cn1 (centres unmarked) [I-T3-157, 2-Chloro-N-cyclopropyl-5-{1-[3-(ethylsulphinyl)-5-(1,1,1,2,3,3,3-heptafluoropropan-2-yl)pyridin-2-yl]-1H-pyrazol-4-yl}benzamide] | 3.8
